Test results reported in PMC12586598, “A novel long-acting C5a-blocking cyclic peptide prevents sepsis-induced organ dysfunction via effective blockade of the inflammatory cascade” (Signal Transduction and Targeted Therapy, 2025).
Where a SMILES comes first, the peptide text is derived from it.

Tests used:
[1] = system: mouse neutrophils; test: C5a-triggered chemotaxis assay, mouse neutrophils (IncuCyte); assay type: cell-based; details: 10 ng to 1 μg per well, 24 h
Method: The chemotaxis assay in this study was monitored and quantified by the IncuCyte ZOOM® Live-Cell Imaging System. The y-axis label “total area normalized to initial area in each group” in Fig. 3k, m represent the ratio of the total cell area at each time point to the initial area (0 h) within the same field of view. A higher ratio indicates […] cell migration activity.
One hundred nanograms of human C5a protein (ACROBiosystems, Beijing, China) was preincubated with linear or cyclic peptides at the indicated concentrations (10 ng, 100 ng, or 1 μg) in 1640 complete culture medium for 30 min. PMNs isolated by flow cytometric sorting for chemotaxis assays were purchased from Oribiotech Co., Ltd. (Shanghai, China). A total of 1 × 10^4 cells were added to the upper chamber of 96-well cell chemotaxis plates (Sartorius, Germany) and allowed to migrate at 37 °C for 24 h. The chemotactic response of neutrophils toward C5a with or without C5a-blocking peptides was quantified and analyzed via an IncuCyte ZOOM® Live-Cell Imaging System (Sartorius, Germany). The chemotactic response of mouse neutrophils was assessed following the established protocol for PMNs.

[2] = target: T1, C5a-C5aR1 (Homo sapiens, UniProt P01031); test: Validation of Cp1-specific blockade of C5a-C5aR1 by flow cytometry on PMNs; assay type: cell-based; details: resting and TNF-α activated PMNs, Cy5-C5a
T1 construct: 10 ng of Cy5-labeled human C5a (MCE, Shanghai, China); purchased MCE; host or cells: PMNs from Oribiotech Co., Ltd. (endogenous receptor)
T1 sequence (P01031 678-751): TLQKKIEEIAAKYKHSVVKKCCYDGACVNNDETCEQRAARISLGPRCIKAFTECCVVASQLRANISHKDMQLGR
Method: To validate the Cp1-specific blockade of C5a-C5aR1. PMNs isolated by flow cytometric sorting from Oribiotech Co., Ltd. (Shanghai, China) were preincubated with C5aR1-antibody (5 μg), C5aR2-antibody (5 μg), Cp1 (10 μg), Cp1 (10 μg)+C5aR1-antibody (5 μg) or Cp1 (10 μg)+C5aR2-antibody (5 μg) at room temperature for 0.5 h, followed by incubation with 10 ng of Cy5-labeled human C5a (MCE, Shanghai, China) at 4 °C for 0.5 h in the dark. The samples were subsequently centrifuged, washed with PBS and detected via flow cytometry. PMNs were stimulated with 10 ng/mL TNF-α for 12 hours to perform competitive binding assays under activated conditions.

[3] = system: CLP model mice; test: cfDNA and neutrophil elastase in plasma of CLP mice; assay type: in vivo, mouse; details: 100 μg/20 g, 24 h after CLP surgery, relative to Sham set as 0%
Method: To determine the levels of cfDNA and elastase in plasma, blood samples were collected, and plasma was prepared 24 h after CLP surgery. cfDNA was extracted via the VAHTS Serum/Plasma Circulating DNA Kit (Vazyme, Nanjing) and quantified via qPCR. Elastase was quantified via an NE ELISA Kit (Cusabio, Wuhan).

[4] = system: PMNs; test: Neutrophil phagocytosis (BioParticles and live bacteria), flow cytometry; assay type: cell-based, human; details: 6 h hC5a stimulation; E. coli and S. aureus BioParticles and live bacteria
Method: To assess the phagocytic function of neutrophils, PMNs were stimulated with hC5a or hC5a/Cp1 complexes for 6 h, followed by incubation with 20 μL of Red E. coli BioParticles™ or Green S. aureus BioParticles™ (Invitrogen, USA) at 37 °C for 0.5 h in the dark.[44] After being washed with precooled PBS and centrifuged (40 × g, 5 min), the samples were subjected to flow cytometric quantification for phagocytosis analysis. For the live bacterial phagocytosis assay, 2 × 10^5 PMNs were prestimulated with 100 ng of hC5a or hC5a/Cp1 complexes for 6 h. The PMNs were incubated with DMAO-labeled E. coli (ATCC 25922) or S. aureus (ATCC 29213) at an MOI (multiplicity of infection) of 10 for 0.5 h at 37 °C in the dark, followed by pretreatment with precooled gentamicin (50 μg/mL). The intracellular fluorescence intensity of PMNs was quantified via flow cytometry.

[5] = system: CLP model mice; test: Routine blood test: neutrophils and monocytes in CLP model mice; assay type: in vivo, mouse; details: 100 μg/20 g i.v.
Method: The cecal ligation and puncture (CLP) model was established in male C57BL/6 mice (9-10 weeks old). Briefly, a midline laparotomy was performed to exteriorize the cecum under general anesthesia. The cecum was ligated at the distal three-quarters using sutures. Subsequently, a single through-and-through puncture was made in the ligated segment using a 22-gaμge needle, followed by small volume of fecal content was gentle extrusion. The cecum was then repositioned within abdominal cavity, and the laparotomy incision was closed in layers. All animals were administered 1 mL of sterile saline for postoperative fluid resuscitation. Sham-operated controls underwent identical surgical procedures without cecal ligation or puncture. In this work, mice received administration via intravenous injection 1 hour after CLP surgery. The animal mortality was determined by the presence of confirmed death. […] Subsequently, mice were sacrificed to collect the main organs for morphological and pathological analysis.

[6] = system: CLP-induced septic mice; test: Organ function, coagulation and lung histology in CLP mice; assay type: in vivo, mouse; details: 24 h post-CLP surgery
Method: (§1) The cecal ligation and puncture (CLP) model was established in male C57BL/6 mice (9-10 weeks old). Briefly, a midline laparotomy was performed to exteriorize the cecum under general anesthesia. The cecum was ligated at the distal three-quarters using sutures. Subsequently, a single through-and-through puncture was made in the ligated segment using a 22-gaμge needle, followed by small volume of fecal content was gentle extrusion. The cecum was then repositioned within abdominal cavity, and the laparotomy incision was closed in layers. All animals were administered 1 mL of sterile saline for postoperative fluid resuscitation. Sham-operated controls underwent identical surgical procedures without cecal ligation or puncture. In this work, mice received administration via intravenous injection 1 hour after CLP surgery. The animal mortality was determined by the presence of confirmed death. […] Blood samples were collected 24 hours after CLP-modeling for hematological analysis (Mindray BC-60R Vet) and biochemical analysis (Mindray BS-240 Vet, China), endothelial injury analysis (Njjcbio, Nanjing) and coagulation analysis (Legene, Beijing). Subsequently, mice were sacrificed to collect the main organs for morphological and pathological analysis.

[7] = system: CLP-induced septic mice; test: Kaplan-Meier survival of CLP model mice; assay type: in vivo, mouse
Method: as §1

[8] = mouse, 24 h
Description: The peptides in the plasma were extracted with 15% TFA and quantified via reversed-phase high-performance liquid chromatography (HPLC) (Agilent 1260, USA).

CSCC[C@@H]1NC(=O)[C@@H]2CCCN2C(=O)[C@H](CCSC)NC(=O)[C@H](CO)NC(=O)[C@H](Cc2c[nH]cn2)NC(=O)CNC(=O)[C@H](CO)NC(=O)[C@H](Cc2ccccc2)NC(=O)[C@H](CCCNC(=N)N)NC(=O)[C@H](CCC(=O)O)NC(=O)[C@H](Cc2ccccc2)NC(=O)[C@H](C(C)C)NC1=O [Cp1] (cyclo(HSMPMVFERFSG))
suppression of C5a-driven recruitment of mouse neutrophils [1]: dose-dependently suppressed
specificity of blocking the C5a-C5aR1 axis [2]: selective blockade of the C5a‒C5aR1 interaction
decrease of plasma neutrophil elastase (NE) ([3]; ELISA): 100%
decrease of plasma cfDNA ([3]; qPCR): 68%
effect on C5a-induced phagocytic impairment in PMNs [4]: effectively mitigated C5a-induced phagocytic impairment
increase of absolute monocyte count (delayed peak) vs sham group ([5]; 12 h): 69%
reduction in absolute neutrophil count vs CLP group ([5]; 12 h): 63%
reduction in absolute monocyte count vs the 4-h peak value in the CLP group ([5]; peak at 12 h): 38%
LDH and LAC levels ([6]; 100 μg/20 g): marked reduction
coagulation function parameters (PT, APTT, TT, Fbg) ([6]; 100 μg/20 g): attenuated the sepsis-induced changes in the clotting and fibrinolytic systems
serum ALT and AST levels (liver function) ([6]; 100 μg/20 g): effectively mitigated the increase
serum UREA and CREA levels (kidney injury) ([6]; 100 μg/20 g, vs untreated CLP mice): significantly lower
lung injury, H&E pathological sections [6]: significantly ameliorated sepsis-induced pulmonary vascular leakage
improvement in the median survival time vs untreated CLP group ([7]; mouse, in vivo): 300%
7-day survival rate ([7]; single administration 100 μg/20 g, n = 10): 60%
stability in normal plasma [8]: comparable stabilities
